In experiment [1] the target is T1, human Nav1.7 channels (Homo sapiens, UniProt Q15858).
T1 construct: expressed in transfected cells; host or cells: HEK 293
Put plainly: IonWorks Quattro automated patch-clamp, inactivated state block of Nav1.7. The experiment is classed as cell-based. Particulars: human Nav1.7 stably expressed in HEK 293 cells, double-pulse protocol, read-out: potency for the Nav 1.7 sodium ion channel (as measured by IonWorks). On the procedure: (§1) IonWorks® Experimental Procedure
(§2) Compounds were tested on human Nav1.7 and Nav1.5 channels stably expressed in HEK 293 cells. Sodium current measurements on IonWorks Quattro: An automated patch-clamp assay on the IonWorks Quattro platform (Molecular Devices) was used to measure state-dependent inhibition of human Nav1.7 and 1.5 channels. Cells were sealed on a planar substrate using the Population Patch […] (PPC) technology. Electrical access was obtained using both nystatin and amphotericin. A double-pulse protocol was used for the determination of IC50 values for inactivated state block. Nav1.7 and Nav1.5 expressing cells were voltage clamped at −100 mV and −110 mV, respectively. A depolarizing prepulse to −10 mV (Nav1.7) or −30 mV (Nav1.5) for 1000 ms followed by a 10 ms repolarization to −100 mV (Nav1.7) or −110 mV (Nav1.5) was given to generate fractional channel inactivation of ˜ 50%, followed by a 10 ms test pulse to −10 mV (Nav1.7) or −30 mV (Nav1.5) to measure peak current in control conditions and after compound addition. The following recording solutions were used (mM). External: 150 NaCl, 2 CaCl2), 5 KCl, 1 Mg Cl2, 10 HEPES, 12 Dextrose; internal: 120 CsF, 30 CsCl, 10 EGTA, 5 HEPES, 5 NaF, 2 MgCl2.
(§3) For all electrophysiology experiments, offline analysis was used to determine percent inhibition as a function of drug concentration. IC50 values were determined by fitting to the Hill equation.
(§4) The various compounds in Examples 1 through 4 and Tables 1 through 3 exemplified above were assayed for activity and selectivity using the foregoing IonWorks® technique. The results are reported in the following paragraph in a format expressing the identification of the compound with reference Example and compound (e.g. Ex 1-9 is Example 1, compound 9) followed by the observed potency in nM and the ratio of Nav1.7 potency:Nav 1.5 potency as described here. […]
(The patch-clamp technique gives a direct electrical read-out from membranes.)

The target in experiment [2] is T2, human Nav1.5 channels (Homo sapiens, UniProt Q14524).
T2 construct: expressed in transfected cells; host or cells: HEK 293
The experiment is described as follows: IonWorks Quattro automated patch-clamp, Nav1.5 (selectivity versus Nav1.7). It counts as cell-based. The settings on record: selectivity Nav1.7 over Nav1.5, both by IonWorks in HEK 293 cells. On the procedure:
as §1, §2, §3, §4

Experimental findings from patent US12427159B2, “Hydroxypyrrolidine-substituted arylsulfonamide compounds with selective activity in voltage-gated sodium channels” (Merck Sharp & Dohme LLC, priority 2019, dated 2025) are described below.

“And” between values parts separate entries of the source, which are not always exact repeats. Identical values can stand only once.

T2 sequence (Q14524 whole entry): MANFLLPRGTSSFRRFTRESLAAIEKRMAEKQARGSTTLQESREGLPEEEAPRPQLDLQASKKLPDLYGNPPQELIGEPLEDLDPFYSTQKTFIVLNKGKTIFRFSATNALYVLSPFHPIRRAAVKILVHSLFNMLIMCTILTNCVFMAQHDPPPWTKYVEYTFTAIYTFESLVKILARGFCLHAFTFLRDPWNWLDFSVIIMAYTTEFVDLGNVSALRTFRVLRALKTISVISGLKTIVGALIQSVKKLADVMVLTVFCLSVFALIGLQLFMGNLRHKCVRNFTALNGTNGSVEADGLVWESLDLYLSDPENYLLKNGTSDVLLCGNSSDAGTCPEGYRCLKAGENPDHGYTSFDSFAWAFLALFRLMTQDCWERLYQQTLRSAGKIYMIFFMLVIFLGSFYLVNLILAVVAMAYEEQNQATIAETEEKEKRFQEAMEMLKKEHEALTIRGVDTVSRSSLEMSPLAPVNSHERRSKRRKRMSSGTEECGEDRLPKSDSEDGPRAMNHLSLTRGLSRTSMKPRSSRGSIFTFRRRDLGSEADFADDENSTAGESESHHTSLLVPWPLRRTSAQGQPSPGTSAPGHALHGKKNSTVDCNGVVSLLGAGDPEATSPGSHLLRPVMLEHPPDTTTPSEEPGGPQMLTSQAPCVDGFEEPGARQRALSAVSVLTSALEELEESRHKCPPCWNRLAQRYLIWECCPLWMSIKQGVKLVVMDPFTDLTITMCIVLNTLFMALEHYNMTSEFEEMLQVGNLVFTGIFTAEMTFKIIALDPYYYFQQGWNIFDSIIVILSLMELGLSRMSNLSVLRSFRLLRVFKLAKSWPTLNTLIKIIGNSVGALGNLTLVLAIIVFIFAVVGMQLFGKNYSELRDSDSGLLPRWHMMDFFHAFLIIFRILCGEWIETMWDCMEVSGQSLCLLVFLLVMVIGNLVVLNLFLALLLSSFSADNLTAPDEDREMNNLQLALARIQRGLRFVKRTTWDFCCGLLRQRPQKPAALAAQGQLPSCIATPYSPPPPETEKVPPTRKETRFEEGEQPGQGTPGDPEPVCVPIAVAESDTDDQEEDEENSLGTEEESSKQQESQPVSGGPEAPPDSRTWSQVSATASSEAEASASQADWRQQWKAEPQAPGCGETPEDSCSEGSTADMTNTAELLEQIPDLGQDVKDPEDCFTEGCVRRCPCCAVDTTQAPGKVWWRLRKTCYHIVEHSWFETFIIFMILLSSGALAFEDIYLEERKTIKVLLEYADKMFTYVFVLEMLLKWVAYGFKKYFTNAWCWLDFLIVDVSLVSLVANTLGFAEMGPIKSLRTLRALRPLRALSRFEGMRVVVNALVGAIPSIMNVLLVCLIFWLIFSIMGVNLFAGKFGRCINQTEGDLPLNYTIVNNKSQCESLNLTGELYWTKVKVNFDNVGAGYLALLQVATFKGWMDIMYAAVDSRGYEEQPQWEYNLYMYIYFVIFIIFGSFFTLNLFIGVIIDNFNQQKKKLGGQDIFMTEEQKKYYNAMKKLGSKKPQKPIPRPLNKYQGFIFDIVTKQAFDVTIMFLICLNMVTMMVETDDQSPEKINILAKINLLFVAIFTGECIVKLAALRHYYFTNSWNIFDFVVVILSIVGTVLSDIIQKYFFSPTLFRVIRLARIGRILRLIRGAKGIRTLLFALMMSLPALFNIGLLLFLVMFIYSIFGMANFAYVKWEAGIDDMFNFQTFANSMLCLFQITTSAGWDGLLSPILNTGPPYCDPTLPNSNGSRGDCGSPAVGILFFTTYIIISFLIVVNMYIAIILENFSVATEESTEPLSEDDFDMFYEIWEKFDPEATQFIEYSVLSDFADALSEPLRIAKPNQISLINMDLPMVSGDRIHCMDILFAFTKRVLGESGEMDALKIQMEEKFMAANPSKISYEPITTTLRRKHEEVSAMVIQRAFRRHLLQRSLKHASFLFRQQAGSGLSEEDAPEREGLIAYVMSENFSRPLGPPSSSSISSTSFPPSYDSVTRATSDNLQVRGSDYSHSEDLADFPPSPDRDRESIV
T1 sequence (Q15858 whole entry): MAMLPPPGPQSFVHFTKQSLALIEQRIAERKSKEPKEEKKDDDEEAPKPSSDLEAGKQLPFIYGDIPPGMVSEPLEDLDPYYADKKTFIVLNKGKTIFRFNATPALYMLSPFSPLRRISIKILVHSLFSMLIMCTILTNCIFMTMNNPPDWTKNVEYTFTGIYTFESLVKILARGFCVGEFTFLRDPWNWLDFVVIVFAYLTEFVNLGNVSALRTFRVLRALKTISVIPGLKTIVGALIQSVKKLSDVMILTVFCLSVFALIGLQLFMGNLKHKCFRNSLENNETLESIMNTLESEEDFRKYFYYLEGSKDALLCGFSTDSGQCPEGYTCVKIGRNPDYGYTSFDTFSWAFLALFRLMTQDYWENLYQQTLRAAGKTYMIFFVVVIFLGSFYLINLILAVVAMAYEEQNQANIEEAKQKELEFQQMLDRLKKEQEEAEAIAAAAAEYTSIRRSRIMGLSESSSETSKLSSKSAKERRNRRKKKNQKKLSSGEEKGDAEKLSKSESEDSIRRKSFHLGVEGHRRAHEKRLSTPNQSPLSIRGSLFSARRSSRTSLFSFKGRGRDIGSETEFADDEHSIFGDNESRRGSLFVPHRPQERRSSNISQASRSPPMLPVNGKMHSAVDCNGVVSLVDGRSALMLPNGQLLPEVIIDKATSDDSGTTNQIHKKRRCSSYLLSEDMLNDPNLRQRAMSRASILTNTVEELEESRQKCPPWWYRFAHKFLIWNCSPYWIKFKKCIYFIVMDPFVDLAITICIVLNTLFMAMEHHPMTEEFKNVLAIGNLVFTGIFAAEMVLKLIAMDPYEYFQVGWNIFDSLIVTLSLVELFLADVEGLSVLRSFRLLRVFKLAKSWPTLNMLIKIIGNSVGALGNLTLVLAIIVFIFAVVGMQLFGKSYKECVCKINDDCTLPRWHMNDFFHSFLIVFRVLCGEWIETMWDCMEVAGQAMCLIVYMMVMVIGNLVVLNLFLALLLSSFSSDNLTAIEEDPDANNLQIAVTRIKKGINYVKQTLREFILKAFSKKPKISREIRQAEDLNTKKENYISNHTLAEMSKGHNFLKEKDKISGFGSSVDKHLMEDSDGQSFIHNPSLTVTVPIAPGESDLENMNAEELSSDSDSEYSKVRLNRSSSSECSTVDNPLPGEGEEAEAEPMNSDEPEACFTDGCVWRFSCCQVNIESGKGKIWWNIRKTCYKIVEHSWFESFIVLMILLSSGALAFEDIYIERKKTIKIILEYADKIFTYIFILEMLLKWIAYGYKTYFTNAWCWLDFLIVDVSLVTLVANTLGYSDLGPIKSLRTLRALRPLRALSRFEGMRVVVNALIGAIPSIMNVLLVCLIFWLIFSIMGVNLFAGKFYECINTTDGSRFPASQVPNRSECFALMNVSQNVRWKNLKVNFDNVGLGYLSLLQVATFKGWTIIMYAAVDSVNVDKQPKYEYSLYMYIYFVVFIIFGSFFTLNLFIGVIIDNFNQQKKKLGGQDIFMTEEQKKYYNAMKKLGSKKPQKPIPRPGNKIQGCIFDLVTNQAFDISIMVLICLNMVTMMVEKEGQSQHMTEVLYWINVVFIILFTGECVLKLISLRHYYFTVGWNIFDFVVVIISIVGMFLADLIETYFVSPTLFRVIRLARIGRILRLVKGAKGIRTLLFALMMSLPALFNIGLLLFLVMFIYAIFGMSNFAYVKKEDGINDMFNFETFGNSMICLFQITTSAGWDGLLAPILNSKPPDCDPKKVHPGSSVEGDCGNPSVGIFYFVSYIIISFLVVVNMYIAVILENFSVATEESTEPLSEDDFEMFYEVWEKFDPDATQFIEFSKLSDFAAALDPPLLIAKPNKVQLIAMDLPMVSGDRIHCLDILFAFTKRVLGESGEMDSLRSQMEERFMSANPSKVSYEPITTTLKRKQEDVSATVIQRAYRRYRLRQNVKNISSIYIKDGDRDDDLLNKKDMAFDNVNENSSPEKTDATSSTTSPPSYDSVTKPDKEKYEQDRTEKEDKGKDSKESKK

Consider `O=S(=O)(Nc1nccs1)c1cc(Cl)c(NC[C@]2(Cc3ccccc3)C[C@H](O)CN2)cc1F` [Ex1-9, 4-((((2S,4S)-2-Benzyl-4-Hydroxypyrrolidin-2-Yl)Methyl)Amino)-5-Chloro-2-Fluoro-N-(Thiazol-2-Yl)Benzenesulfonamide], for which the IC50 in experiment [1] was determined as 8 nM. In addition, the “ratio of Nav1.7 potency:Nav 1.5 potency” value in experiment [2] is 3976 and > 3976.
In the case of `O=S(=O)(Nc1nccs1)c1cc(Cl)c(NC[C@]2(CC3CCC3)C[C@H](O)CN2)cc1F` [Ex1-15, 5-Chloro-4-((((2S,4S)-2-(Cyclobutylmethyl)-4-Hydroxypyrrolidin-2 Yl)Methyl)Amino)-2-Fluoro-N-(Thiazol-2-Yl)Benzenesulfonamide], the IC50 in experiment [1] was found to be 4 nM. The “ratio of Nav1.7 potency:Nav 1.5 potency” value in experiment [2] is on record as over 7500.
With `O=S(=O)(Nc1nccs1)c1cc(Cl)c(NC[C@]2(Cc3ccc(Br)cc3)C[C@H](O)CN2)cc1F` [Ex1-22, 4-((((2S,4S)-2-(4-Bromobenzyl)-4-Hydroxypyrrolidin-2-Yl)Methyl)Amino)-5-Chloro-2-Fluoro-N-(Thiazol-2-Yl)Benzenesulfonamide], the IC50 in experiment [1] was 4 nM. In addition, the “ratio of Nav1.7 potency:Nav 1.5 potency” value in experiment [2] is 84.
Taken in the same sequence, the figures for `O=S(=O)(Nc1nccs1)c1cc(Cl)c(NC[C@]2(CCc3ccccc3)C[C@H](O)CN2)cc1F` [Ex1-28, 5-Chloro-2-Fluoro-4-((((2S,4S)-4-Hydroxy-2-Phenethylpyrrolidin-2-Yl)Methyl)-Amino)-N-(Thiazol-2-Yl)Benzenesulfonamide] were 3 nM and 11000.
Taken in the same sequence, the figures for `O=S(=O)(Nc1nccs1)c1cc(Cl)c(NC[C@]2(CCCc3ccccc3)C[C@H](O)CN2)cc1F` [Ex1-29, 5-chloro-2-fluoro-4-((((2S,4S)-4-hydroxy-2-(3-phenylpropyl)-pyrrolidin-2-yl)methyl)amino)-N-(thiazol-2-yl)-benzene-sulfonamide] were 2 nM and 10500.
Taken in the same sequence, the figures for `O=S(=O)(Nc1nccs1)c1cc(Cl)c(NC[C@]2(Cc3cccc(Br)c3)C[C@H](O)CN2)cc1F` [Ex1-30, 4-((((2S,4S)-2-(3-bromobenzyl)-4-hydroxypyrrolidin-2-yl)methyl)amino)-5-chloro-2-fluoro-N-(thiazol-2-yl) benzenesulfonamide] were 7 nM and 1220.
`COc1cccc(C[C@@]2(CNc3cc(F)c(S(=O)(=O)Nc4nccs4)cc3Cl)C[C@H](O)CN2)c1` [Ex1-31, 5-chloro-2-fluoro-4-((((2S,4S)-4-hydroxy-2-(3-methoxybenzyl)pyrrolidin-2-yl)methyl)amino)-N-(thiazol-2-yl) benzenesulfonamide]: the IC50 in experiment [1] was determined as 7 nM. Besides, the “ratio of Nav1.7 potency:Nav 1.5 potency” value in experiment [2] is listed as 4714.
On the same counts, the results for `Cc1cccc(C[C@@]2(CNc3cc(F)c(S(=O)(=O)Nc4nccs4)cc3Cl)C[C@H](O)CN2)c1` [Ex1-32] are 2 nM and 16500.
For `O=S(=O)(Nc1nccs1)c1cc(Cl)c(NC[C@]2(Cc3cccc(F)c3)C[C@H](O)CN2)cc1F` [Ex1-33, 5-chloro-2-fluoro-4-((((2S,4S)-2-(3-fluorobenzyl)-4-hydroxypyrrolidin-2-yl)methyl)amino)-N-(thiazol-2-yl) benzenesulfonamide], in experiment [1], the IC50 turned out to be 7 nM. In experiment [2], the “ratio of Nav1.7 potency:Nav 1.5 potency” value was found to be 1714.
Taken in the same sequence, the figures for `CC(C)(C)CC[C@@]1(CNc2cc(F)c(S(=O)(=O)Nc3nccs3)cc2Cl)C[C@H](O)CN1` [Ex1-34, 5-chloro-4-((((2S,4S)-2-(3,3-dimethylbutyl)-4-hydroxypyrrolidin-2-yl)methyl)amino)-2-fluoro-N-(thiazol-2-yl) benzenesulfonamide] were 4 nM and 6750.
On the same counts, the results for `N#Cc1ccc(C[C@@]2(CNc3cc(F)c(S(=O)(=O)Nc4nccs4)cc3Cl)C[C@H](O)CN2)cc1` [Ex2-2, 5-Chloro-4-((((2S,4S)-2-(4-Cyanobenzyl)-4-Hydroxypyrrolidin-2-Yl)Methyl)Amino)-2-Fluoro-N-(Thiazol-2-Yl)Benzenesulfonamide] are 4 nM and 3000.
`NCc1ccc(C[C@@]2(CNc3cc(F)c(S(=O)(=O)Nc4nccs4)cc3Cl)C[C@H](O)CN2)cc1` [Ex2-3, 4-((((2S,4S)-2-(4-(Aminomethyl) Benzyl)-4-Hydroxypyrrolidin-2-Yl) Methyl)Amino)-5-Chloro-2-Fluoro-N-(Thiazol-2-Yl)Benzenesulfonamide]: the IC50 in experiment [1] was 38 nM. In addition, the “ratio of Nav1.7 potency:Nav 1.5 potency” value in experiment [2] is 868.
In the case of `N#Cc1cccc(C[C@@]2(CNc3cc(F)c(S(=O)(=O)Nc4nccs4)cc3Cl)C[C@H](O)CN2)c1` [Ex2-4, 5-chloro-4-((((2S,4S)-2-(3-cyanobenzyl)-4-hydroxypyrrolidin-2-yl)methyl)amino)-2-fluoro-N-(thiazol-2-yl)benzenesulfonamide], the IC50 in experiment [1] came out at 11 nM. Moreover, the “ratio of Nav1.7 potency:Nav 1.5 potency” value in experiment [2] is reported as 2909.
For `NCc1cccc(C[C@@]2(CNc3cc(F)c(S(=O)(=O)Nc4nccs4)cc3Cl)C[C@H](O)CN2)c1` [Ex2-5, 4-((((2S,4S)-2-(3-(aminomethyl)benzyl)-4-hydroxypyrrolidin-2-yl)methyl)amino)-5-chloro-2-fluoro-N-(thiazol-2-yl)benzenesulfonamide], in experiment [1], the IC50 amounted to 4 nM. Further, the “ratio of Nav1.7 potency:Nav 1.5 potency” value in experiment [2] is 6250.
On the same counts, the results for `O=S(=O)(Nc1nccs1)c1cc(Cl)c(NC[C@]2(Cc3ccc(-c4ccccn4)cc3)C[C@H](O)CN2)cc1F` [Ex3-2, 5-Chloro-2-Fluoro-4-((((2S,4S)-4-Hydroxy-2-(4-(Pyridin-2-Yl)Benzyl)Pyrrolidin-2-Yl)Methyl)Amino)-N-(Thiazol-2-Yl)Benzenesulfonamide] are 7 nM and 543.
With `O=S(=O)(Nc1nccs1)c1cc(Cl)c(NC[C@]2(Cc3ccc(-c4ncco4)cc3)C[C@H](O)CN2)cc1F` [Ex3-3, 5-chloro-2-fluoro-4-((((2S,4S)-4-hydroxy-2-(4-(oxazol-2-yl)benzyl)pyrrolidin-2-yl)methyl)amino)-N-(thiazol-2-yl)benzenesulfonamide], the IC50 in experiment [1] came out at 9 nM. Besides, the “ratio of Nav1.7 potency:Nav 1.5 potency” value in experiment [2] is 933.
Taken in the same sequence, the figures for `O=S(=O)(Nc1nccs1)c1cc(Cl)c(NC[C@]2(Cc3ccc(-c4ccn[nH]4)cc3)C[C@H](O)CN2)cc1F` [Ex4-2, 4-((((2S,4S)-2-(4-(1H-Pyrazol-5-Yl)Benzyl)-4-Hydroxypyrrolidin-2-Yl) Methyl)Amino)-5-Chloro-2-Fluoro-N-(Thiazol-2-Yl)Benzenesulfonamide] were 18 nM and 367.
